Assay results from patent US8945595B2, “Insect repellent and attractants” (The Regents of the University of California, priority 2009, dated 2015).
Entries after “also recorded” stand apart in the source; their conditions may differ.

Assays:
wild-type Drosophila = assay: T-maze assay, avoidance to Drosophila stress odour (dSO); type: in vivo; conditions: odourant added to dSO
Experimental: T-maze behavior assay: a, Mean Preference Index (PI) of wild-type flies, given a choice between room air in 15 ml tube and either 0.1 ml of pure CO2 in a 15 ml tube (CO2), or binary mixtures of 0.1 ml pure CO2 and 1-hexanol (CO2+6ol) at 10^−1 dilution or 2,3-butanedione (CO2+d4on) at 10^−2 dilution, also in 15 ml tubes (see Methods). b, Mean PI of mutant flies given choices as in a. c, Mean PI of wild-type flies given choices between room air and odour collected from 70 untreated flies (mock), or 70 vortexed “emitter” flies of Drosophila stress odour (dSO), or mixtures of dSO with indicated odourants. n=6-9 trials (˜40 flies each), error bars=s.e.m. (T-test, *P<0.0001, **P<0.005, ***P<0.05).
T-maze behavioral testing using Drosophila stress odour, CO2, and mixtures were using techniques known in the art, with some modifications. In particular, the entire headspace from 15 ml capped “emitter” or “mock” fly tubes was withdrawn using fresh syringes and needles and infused into fresh capped 15 ml plastic tubes immediately prior to use in the T-maze. […] The avoidance response was calculated as a Preference Index (PI)=(number of flies in test arm−number of flies in control arm)/(total number of flies in assay). […] The avoidance response was calculated as a Preference Index (PI)=(number of flies in test arm−number of flies in control arm)/(total number of flies in assay). […]

[1] = tested on: CO2-sensitive ab1C neurons; assay: single-sensillum electrophysiology, inhibition of CO2 response of ab1C neurons; type: cell-based, Drosophila; conditions: for inhibition of CO2 response of ab1C neurons: 0.3% CO2 with varying concentrations of odourant, applied prior to or after CO2 stimulus; for silencing of CO2 neuron beyond the period of application: 2,3-butanedione at concentrations >=10^-1, 1-hexanol at the concentrations tested; for inhibition of CO2 response across tested CO2 concentrations: CO2 0.1% up to ~3%
Description: Representative traces (top) and mean responses (bottom) from single-sensillum electrophysiology of ab1 sensilla in mutant flies; spikes represent activity of the ab1C neuron. a, 3-sec stimulus of odourant overlaid with a 1-sec application of 0.3% CO2. b, 3-sec stimulus of 0.3% CO2 overlaid with a 1-sec application of odourant. PO=paraffin oil, d4on=2,3-butanedione, 6ol=1-hexanol. n=6, error bars=s.e.m. Spikes per second were counted during the 1-sec stimulus period, and spontaneous activity subtracted. (For data in a and b, T-test, *P<0.001, **P<0.005, ***P<0.01, ****P<0.05) c, ab1C responses to indicated concentrations of CO2 in the presence of solvent (PO), 1-hexanol (6ol) or 2,3-butanedione (d4on). Odourants were tested at 10^−1 dilution. Firing rates were counted in consecutive 0.1-sec bins. n=3, error bars=s.e.m.
Bars indicate stimulus periods for 0.3% CO2, and overlays with 1-hexanol (6ol) or 2,3-butanedione (d4on) at the indicated concentrations. b, Recovery of ab1C responsiveness to a 0.5-sec, 0.3% CO2 stimulus applied every 30-sec after initial treatment with 3-sec stimulus of either d4on (10^−1) or paraffin oil (PO). n=5, error bars=s.e.m., (T-test, *P<0.005, **<0.01, ***P<0.05). c, CO2 response inhibition by structurally related compounds. A 3-sec stimulus of 0.3% CO2 was delivered in combination with 1-sec application of indicated odourant (10^−2) as in a. Percent increase or decrease in mean ab1C response was calculated relative to mean response of paraffin oil. n=5. d, Structures of CO2 and the 4 strongest antagonists. e-f, show mean odourant responses. e, Odourants were tested on ab1C neurons in Or83b2 flies at 10^−2 dilution in paraffin oil. Bars represent values after subtraction of mean response to paraffin oil. n=3. f, Odourants at indicated concentrations were tested on ab3A neuron in wild-type (wt) and ΔHalo (AH) mutants that lack Or22a and Or22b. Bars represent values after subtraction of spontaneous activity. n=5, error bars=s.e.m.
FIG. 16 is a schematic diagram of an odour-delivery system to maintain steady concentration of CO2 in binary mixture experiments. Cartridges were made from Pasteur pipettes with pre-filled cotton wool inserts. […] odorant dissolved in paraffin oil (at specific concentrations) was applied to the cotton wool, and a 1.5 ml disposable tip attached to the open end to make the “odour cartridge”. A controlled “humidified air flow” was generated from a compressed air cylinder by bubbling through water, and passed through a glass tube, and released over the recording arena holding the Drosophila. A C-55 stimulus controller (Syntech) was used to generate an additional activated-charcoal filtered continuous air flow of 5 ml/sec which was delivered into the humidified airstream through a “blank cartridge” with the tip placed through a hole in the tube. To generate controlled odourant stimulus the C-55 stimulus controller was used to switch air flow from the “continuous air flow” to “odor stimulus flow” channel. An additional CO2 stimulus was pulsed through a separate system that delivered controlled pulses (variable 2.5 ml/sec-6.5 ml/sec) into the same humidified airstream, from either a 1%, 5% or 100% cylinder of CO2 (Airgas).
Extracellular single-unit recordings were performed. Odourant stimuli were delivered via Pasteur pipette odour cartridges (see, FIG. 16). Chemicals were of the highest purity available, typically>99% (Sigma-Aldrich). All odourants were diluted in paraffin oil. A controlled volume of air 5 ml/sec was puffed through the odour cartridge containing vapours, and was delivered into a constant humidified airstream of 10 ml/sec that was passed over the fly antenna. […] CO2 stimulus was pulsed through a separate delivery system that delivered controlled pulses (variable 2.5 ml/sec-6.5 ml/sec) into the same humidified airstream, from either a 1%, 5% or 100% tank of CO2 (Airgas). […]

SMILES | avoidance behavior to dSO (Preference Index) (wild-type Drosophila) | effect of order of presentation on strength of CO2 response inhibition ([1]; 0.3% CO2) | inhibition of CO2 response of ab1C neurons [1] | silencing of CO2 neuron beyond the period of application [1] | inhibition of CO2 response across tested CO2 concentrations ([1]; odourant 10^-1) | CO2 concentration at which complete inhibition occurs ([1]; odourant 10^-1, lowest concentration tested) | CO2 response at 10 minutes versus neurons not pre-exposed ([1]; after 3-second stimulus of odourant 10^-1, 0.3% CO2) | time until responsiveness to CO2 restored to half-maximal levels ([1]; after 3-second stimulus of odourant 10^-1, 0.5-second 0.3% CO2 every 30 seconds) | silencing of CO2-responsive neurons ([1]; odourant at concentrations >10^-2, 0.3% CO2)
CCCCCCO [1-hexanol] | significantly reduced avoidance behavior | greater if it is presented subsequent to the CO2 stimulus | inhibited CO2 response in a dose-dependent manner | not observed | significant reduction | 0.1 % CO2 |  |  | 
CC(=O)C(C)=O [2,3-butanedione] | significantly reduced avoidance behavior; also recorded: completely abolished | of lesser consequence | inhibited CO2 response in a dose-dependent manner | silenced the CO2 neuron well beyond the period of application | complete inhibition |  | significantly lower | ~3 min | silences CO2-responsive neurons completely
